Common to all, as to conditions: synthetic library passage 3, intravenous, relative to wild-type AAV9
Assay [1] relates to brain, spinal cord, and DRG of the NHPs. Briefly: NGS fold enrichment of synthetic library (passage 3) in NHPs, first cross-species screen. The class given is in vivo, cynomolgus macaques (Macaca fascicularis). Summed up:
(§1)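 Fold enrichment versus wild-type AAV9 was derived by NGS of RT-PCR-amplified RNA from nervous tissue, collected e.g. 28 days after IV dosing […]. The library (passage 3) was given to two NHPs aged 2-4 years and to 6-8-week BALB/c and C57Bl/6 mice (n=3 each).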

Assay [2] has as its system brain. The assay is described as follows: NGS fold enrichment of synthetic library (passage 3) in BALB/c mice, first cross-species screen. The class given is in vivo. Summed up:
as §1

Assay [3] deals with brain. Briefly: NGS fold enrichment of synthetic library (passage 3) in C57Bl/6 mice, first cross-species screen. The class given is in vivo. Summed up:
as §1

Setting [4] is: RNA from spinal cord of NHPs, NGS.
The mark [5] stands for this setting: RNA from brain of BALB/c mice, NGS.
[6] abbreviates: RNA from brain of C57Bl/6 mice, NGS.

Consider GSGQSHRDVLNQQT, for which the “Fold enrichment over AAV9 in the brain of NHPs” value in assay [1] (RNA NGS, brain of NHPs) is 1.872 fold. In addition, the “Fold enrichment over AAV9 in the spinal cord of NHPs” value in assay [1] (RNA NGS, spinal cord of NHPs) amounted to 15.082 fold. Besides, the “Fold enrichment over AAV9 in the brain of Mice (BALB/c)” value (from here on “Fold enrichment over AAV9 … (BALB/c)”) in assay [2] (RNA NGS, brain of BALB/c mice) came to 0.280 fold. Also, the “Fold enrichment over AAV9 in the brain of Mice (C57Bl/6)” value (shortened to “Fold enrichment over AAV9 … (C57Bl/6)”) in assay [3] (RNA NGS, brain of C57Bl/6 mice) is 0.138 fold.

For GSGDLVVSTQNQQT, in assay [1] (RNA NGS, brain of NHPs), the “Fold enrichment over AAV9 in the brain of NHPs” value is on record as 3.874 fold. Moreover, in assay [1] (RNA NGS, spinal cord of NHPs), the “Fold enrichment over AAV9 in the spinal cord of NHPs” value was 1.177 fold. The “Fold enrichment over AAV9 … (BALB/c)” value in assay [2] (RNA NGS, brain of BALB/c mice) is recorded as 0.273 fold. Also, the “Fold enrichment over AAV9 … (C57Bl/6)” value in assay [3] (RNA NGS, brain of C57Bl/6 mice) came to 0.411 fold.

Take GSGQNQGRAHPMQT: the “Fold enrichment over AAV9 in the brain of NHPs” value in assay [1] (RNA NGS, brain of NHPs) turned out to be 1.007 fold. Besides, in assay [1] (RNA NGS, spinal cord of NHPs), the “Fold enrichment over AAV9 in the spinal cord of NHPs” value was found to be 2.364 fold. Also, the “Fold enrichment over AAV9 … (BALB/c)” value in assay [2] (RNA NGS, brain of BALB/c mice) is recorded as 0.453 fold. Also, in assay [3] (RNA NGS, brain of C57Bl/6 mice), the “Fold enrichment over AAV9 … (C57Bl/6)” value came out at 0.684 fold.

On to GFSSAVHSGQNQQT, for which, in assay [1] (RNA NGS, brain of NHPs), the “Fold enrichment over AAV9 in the brain of NHPs” value was found to be 1.502 fold. Moreover, the “Fold enrichment over AAV9 in the spinal cord of NHPs” value in assay [1] (RNA NGS, spinal cord of NHPs) is listed as 1.234 fold. In addition, the “Fold enrichment over AAV9 … (BALB/c)” value in assay [2] (RNA NGS, brain of BALB/c mice) is on record as 0.210 fold. Also, the “Fold enrichment over AAV9 … (C57Bl/6)” value in assay [3] (RNA NGS, brain of C57Bl/6 mice) was found to be 0.218 fold.

Take GSGQNQQTNRGNPM: the “Fold enrichment over AAV9 in the brain of NHPs” value in assay [1] (RNA NGS, brain of NHPs) was 1.860 fold. Further, the “Fold enrichment over AAV9 in the spinal cord of NHPs” value in assay [1] (RNA NGS, spinal cord of NHPs) is recorded as 3.402 fold. For the same sequence, the “Fold enrichment over AAV9 … (BALB/c)” value in assay [2] (RNA NGS, brain of BALB/c mice) is 1.098 fold. For the same sequence, the “Fold enrichment over AAV9 … (C57Bl/6)” value in assay [3] (RNA NGS, brain of C57Bl/6 mice) is recorded as 1.349 fold.

As for GSRQSKRNELNQQT, the “Fold enrichment over AAV9 in the brain of NHPs” value in assay [1] (RNA NGS, brain of NHPs) came to 2.177 fold. In assay [1] (RNA NGS, spinal cord of NHPs), the “Fold enrichment over AAV9 in the spinal cord of NHPs” value amounted to 0.000 fold. Moreover, the “Fold enrichment over AAV9 … (BALB/c)” value in assay [2] (RNA NGS, brain of BALB/c mice) was found to be 0.232 fold. Besides, the “Fold enrichment over AAV9 … (C57Bl/6)” value in assay [3] (RNA NGS, brain of C57Bl/6 mice) worked out at 1.325 fold.

On to GSGVSTYNIQNQQT, for which, in assay [1] (RNA NGS, brain of NHPs), the “Fold enrichment over AAV9 in the brain of NHPs” value is 3.609 fold. Besides, in assay [1] (RNA NGS, spinal cord of NHPs), the “Fold enrichment over AAV9 in the spinal cord of NHPs” value was 2.912 fold. The “Fold enrichment over AAV9 … (BALB/c)” value in assay [2] (RNA NGS, brain of BALB/c mice) is given as 0.520 fold. For the same sequence, the “Fold enrichment over AAV9 … (C57Bl/6)” value in assay [3] (RNA NGS, brain of C57Bl/6 mice) was 0.769 fold.

For the sequence GNIAGSVSGQNQQT, the “Fold enrichment over AAV9 in the brain of NHPs” value in assay [1] (RNA NGS, brain of NHPs) turned out to be 2.849 fold. Besides, the “Fold enrichment over AAV9 in the spinal cord of NHPs” value in assay [1] (RNA NGS, spinal cord of NHPs) was found to be 1.187 fold. Besides, the “Fold enrichment over AAV9 … (BALB/c)” value in assay [2] (RNA NGS, brain of BALB/c mice) amounted to 0.257 fold. For the same sequence, the “Fold enrichment over AAV9 … (C57Bl/6)” value in assay [3] (RNA NGS, brain of C57Bl/6 mice) stood at 0.446 fold.

Regarding GREYGHKSGQNQQT, the “Fold enrichment over AAV9 in the brain of NHPs” value in assay [1] (RNA NGS, brain of NHPs) is reported as 3.453 fold. The “Fold enrichment over AAV9 in the spinal cord of NHPs” value in assay [1] (RNA NGS, spinal cord of NHPs) amounted to 0.000 fold. Further, in assay [2] (RNA NGS, brain of BALB/c mice), the “Fold enrichment over AAV9 … (BALB/c)” value was 0.959 fold. The “Fold enrichment over AAV9 … (C57Bl/6)” value in assay [3] (RNA NGS, brain of C57Bl/6 mice) is 1.422 fold.

As for GQLGSVGSGQDQQT, in assay [1] (RNA from brain of NHPs, NGS), the “Fold enrichment over AAV9 in the brain of NHPs” value was found to be 1.196 fold. In addition, in assay [1] (setting [4]), the “Fold enrichment over AAV9 in the spinal cord of NHPs” value stood at 0.000 fold. Further, the “Fold enrichment over AAV9 … (BALB/c)” value in assay [2] (setting [5]) amounted to 0.437 fold. For the same sequence, the “Fold enrichment over AAV9 … (C57Bl/6)” value in assay [3] (setting [6]) was 1.020 fold.

Turning to GSDFLGTHGQNQQT, in assay [1] (RNA NGS, brain of NHPs), the “Fold enrichment over AAV9 in the brain of NHPs” value amounted to 3.171 fold. The “Fold enrichment over AAV9 in the spinal cord of NHPs” value in assay [1] (RNA NGS, spinal cord of NHPs) came to 0.348 fold. Also, in assay [2] (RNA NGS, brain of BALB/c mice), the “Fold enrichment over AAV9 … (BALB/c)” value amounted to 0.750 fold. The “Fold enrichment over AAV9 … (C57Bl/6)” value in assay [3] (RNA NGS, brain of C57Bl/6 mice) was 1.038 fold.

Turning to GRAVMDHSGQNQQT, the “Fold enrichment over AAV9 in the brain of NHPs” value in assay [1] (RNA NGS, brain of NHPs) was found to be 2.408 fold. In assay [1] (RNA NGS, spinal cord of NHPs), the “Fold enrichment over AAV9 in the spinal cord of NHPs” value turned out to be 3.209 fold. Further, in assay [2] (RNA NGS, brain of BALB/c mice), the “Fold enrichment over AAV9 … (BALB/c)” value was 0.283 fold. Moreover, the “Fold enrichment over AAV9 … (C57Bl/6)” value in assay [3] (RNA NGS, brain of C57Bl/6 mice) came out at 0.728 fold.

On to GSGLLHGKLQNQQT, for which the “Fold enrichment over AAV9 in the brain of NHPs” value in assay [1] (RNA NGS, brain of NHPs) came out at 2.032 fold. Besides, in assay [1] (RNA NGS, spinal cord of NHPs), the “Fold enrichment over AAV9 in the spinal cord of NHPs” value turned out to be 2.521 fold. In addition, the “Fold enrichment over AAV9 … (BALB/c)” value in assay [2] (RNA NGS, brain of BALB/c mice) turned out to be 0.917 fold. The “Fold enrichment over AAV9 … (C57Bl/6)” value in assay [3] (RNA NGS, brain of C57Bl/6 mice) is 1.068 fold.

Consider GSGQNRKPASFAQT, for which the “Fold enrichment over AAV9 in the brain of NHPs” value in assay [1] (RNA NGS, brain of NHPs) was determined as 3.204 fold. Moreover, the “Fold enrichment over AAV9 in the spinal cord of NHPs” value in assay [1] (RNA NGS, spinal cord of NHPs) turned out to be 0.000 fold. Also, in assay [2] (RNA NGS, brain of BALB/c mice), the “Fold enrichment over AAV9 … (BALB/c)” value was 1.061 fold. Besides, the “Fold enrichment over AAV9 … (C57Bl/6)” value in assay [3] (RNA NGS, brain of C57Bl/6 mice) turned out to be 0.892 fold.

Take GSGQNWPALKGQQT: in assay [1] (RNA from brain of NHPs, NGS), the “Fold enrichment over AAV9 in the brain of NHPs” value came to 1.284 fold. For the same sequence, in assay [1] (setting [4]), the “Fold enrichment over AAV9 in the spinal cord of NHPs” value is 2.031 fold. Also, the “Fold enrichment over AAV9 … (BALB/c)” value in assay [2] (setting [5]) was found to be 1.222 fold. The “Fold enrichment over AAV9 … (C57Bl/6)” value in assay [3] (setting [6]) is 1.101 fold.

Regarding GSGHMSDLRQNQQT, in assay [1] (RNA NGS, brain of NHPs), the “Fold enrichment over AAV9 in the brain of NHPs” value is 1.073 fold. The “Fold enrichment over AAV9 in the spinal cord of NHPs” value in assay [1] (RNA NGS, spinal cord of NHPs) worked out at 4.291 fold. The “Fold enrichment over AAV9 … (BALB/c)” value in assay [2] (RNA NGS, brain of BALB/c mice) stood at 0.328 fold. Besides, the “Fold enrichment over AAV9 … (C57Bl/6)” value in assay [3] (RNA NGS, brain of C57Bl/6 mice) is given as 0.555 fold.

Source of the values: patent publication US20260250318A1, “COMPOSITIONS AND METHODS FOR CROSSING THE BLOOD BRAIN BARRIER” (VOYAGER THERAPEUTICS, INC., priority 2022, published 2026).
